Like-named read-outs stand apart in the source and are kept apart here.
Key:
human 5-HT1B receptor = biological target: T1, human 5-HT1B receptor (Homo sapiens, UniProt P28222); assay: Radioligand competition binding and kinetics, CHO-K1 membranes
T1 construct: purchased Euroscreen; host or cells: CHO-K1
Description: (§1) For kinetics of radioligand competitive binding, serial dilutions were performed from master solution in 100% DMSO to obtain intermediate concentrations 200-fold higher than the concentrations to be tested. Each test sample was diluted 100-fold in the assay buffer and dispensed into the test plate.
5-HT1B Radioligand Binding Assay
Assay buffer: 50 mM Tris (pH 7.4), 12.5 mM MgCl2, 0.1% ascorbic acid, 1 mM EDTA Washing buffer: 50 mM Tris (pH 7.4) Membrane: recombinant CHO-K1-5-HT1B membranes thawed on ice and diluted in assay buffer (7 μg/well)
Ligand: 5-CT (Tocris, 0458)
Radioligand: [^3H]-CT (Perkin Elmer, TRK1038, diluted in assay buffer for a final concentration of 0.6 nM) Filter plate: GF/B Unifilter plate (Perkin Elmer, 6005177) presoaked in 0.5% PEI for 2 hours at RT.
(§2) Determination of the Kon constant. Radioligand association kinetics on each receptor were performed by adding in the wells of a 96 well plate 50 μL of radioligand and 50 μL of membrane extracts. The samples were incubated for the times reported in Table 3 below at a temperature optimized for each receptor and filtered over a filter plate. After washing the filters 5 times with 0.5 mL of ice-cold washing buffer, 50 μL of Microscint 20 (Packard) were added to the filters and the plates were incubated 15 min on an orbital shaker and then counted for 1 min/well. This allowed determination of the kobs for each radioligand. Association kinetics were performed at 5 different radioligand concentrations optimized for each receptor (see Table 3 below) to determine 5 different kobs. The different kobs were then plotted against the [radioligand] and the K. was calculated using the following equation: kon=(kobs−koff)[radioligand].
Determination of the Koff constant. Radioligand dissociation kinetics on each receptor were performed by adding in the wells of a 96 well plate 45 μL of radioligand and 45 μL of membrane extracts. The samples were incubated as reported in Table 4 below at a temperature optimized for each receptor until binding equilibrium was reached as determined by the association kinetics experiment. Then, 100 μL of cold competitor (reference ligand) were added at a 200 fold excess (final concentration) for the times reported in Table 4 at the optimized temperature. The samples were then filtered over a filter plate. After washing the filters 5 times with 0.5 mL of ice-cold washing buffer, 50 μL of Microscint 20 (Packard) were added to the filters and the plates were incubated 15 min on an orbital shaker and then counted for 1 min/well. This allowed determination of the koff for each radioligand.
Determination of IC50 and Ki constant for each test compound. Radioligand competition binding on each receptor were performed by adding in the wells of a 96 well plate […] of test compound at increasing concentration as reported in Table 5 below, 25 μL of radioligand and 25 μL of membrane extracts. The samples were incubated for 60 min (or 4 hours for a second experiment on 5-HT2B receptors) at a temperature optimized for each receptor and then filtered over a filter plate. After washing the filters 5 times with 0.5 mL of ice-cold washing buffer, 50 μL of Microscint 20 (Packard) were added to the filters and the plates were incubated 15 min on an orbital shaker and then counted for 1 min/well. The test compounds were tested in duplicate at the nanomolar concentrations reported below in Table 5.
Determination of kon and koff constants for each test compound. Each compound was first assessed in a pilot experiment to evaluate its effect on the kinetic binding of each receptor-radioligand pair. These pilot experiments were performed at on compound concentration and were composed of 10 time-points measurements in duplicate (2, 5, 10, 20, 30, 45, 60, 90, 120 and 150 minutes).

human 5-HT1A receptor = biological target: T2, human 5-HT1A receptor (Homo sapiens, UniProt P08908); assay: as above
T2 construct: purchased Euroscreen; host or cells: CHO-K1
T2 sequence (P08908 1-422): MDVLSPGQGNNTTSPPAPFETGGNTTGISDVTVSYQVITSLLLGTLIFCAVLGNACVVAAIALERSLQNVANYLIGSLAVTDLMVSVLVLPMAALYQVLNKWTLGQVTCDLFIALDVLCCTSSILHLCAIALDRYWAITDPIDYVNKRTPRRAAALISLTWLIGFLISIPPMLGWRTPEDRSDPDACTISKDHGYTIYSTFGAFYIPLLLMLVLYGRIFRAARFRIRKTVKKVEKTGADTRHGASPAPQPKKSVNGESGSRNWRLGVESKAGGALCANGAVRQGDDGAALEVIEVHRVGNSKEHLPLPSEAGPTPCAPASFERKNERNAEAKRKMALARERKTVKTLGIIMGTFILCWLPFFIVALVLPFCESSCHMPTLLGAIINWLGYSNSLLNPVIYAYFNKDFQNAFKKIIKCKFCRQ
Description: as §1
as §2, with “Association kinetics were performed at 5 different radioligand concentrations optimized for each receptor (see Table 3 below) to determine 5 different kobs.” left out
Determination of the Koff constant. […] The samples were incubated as reported in Table 4 below at a temperature optimized for each receptor until binding equilibrium was reached as determined by the association kinetics experiment. […] After washing the filters 5 times with 0.5 mL of ice-cold washing buffer, 50 μL of Microscint 20 (Packard) were added to the filters and the plates were incubated 15 min on an orbital shaker and then counted for 1 min/well. […]
Determination of IC50 and Ki constant for each test compound. […] After washing the filters 5 times with 0.5 mL of ice-cold washing buffer, 50 μL of Microscint 20 (Packard) were added to the filters and the plates were incubated 15 min on an orbital shaker and then counted for 1 min/well. […]
Determination of kon and koff constants for each test compound. Each compound was first assessed in a pilot experiment to evaluate its effect on the kinetic binding of each receptor-radioligand pair. […]

T1 sequence (P28222 whole entry): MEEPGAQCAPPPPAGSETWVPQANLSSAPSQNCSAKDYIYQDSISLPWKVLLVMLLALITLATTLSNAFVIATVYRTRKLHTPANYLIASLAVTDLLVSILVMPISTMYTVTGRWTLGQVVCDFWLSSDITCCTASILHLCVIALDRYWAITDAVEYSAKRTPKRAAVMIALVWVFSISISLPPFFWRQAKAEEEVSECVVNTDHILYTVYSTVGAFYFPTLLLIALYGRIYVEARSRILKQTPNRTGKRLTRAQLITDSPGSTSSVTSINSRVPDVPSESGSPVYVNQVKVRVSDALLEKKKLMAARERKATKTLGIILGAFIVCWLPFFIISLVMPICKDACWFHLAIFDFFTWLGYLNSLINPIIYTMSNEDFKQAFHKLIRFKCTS

Row | SMILES | Avg Dissociation half-life (human 5-HT1B receptor; 5-HT1B) [h] | Avg Koff (human 5-HT1B receptor; 5-HT1B) [s⁻¹] | IC50 (human 5-HT1B receptor; 5-HT1B, [3H]-CT, read-out: IC50 from binding assay) [nM] | IC50 (human 5-HT1A receptor; 5-HT1A, [3H]-WAY100635, read-out: IC50 from binding assay) [nM] | IC50 (human 5-HT1B receptor) [nM] | koff (human 5-HT1B receptor; read-out: Avg Koff) [s⁻¹] | IC50 (human 5-HT1A receptor) [nM]
1 | CN1C[C@H](C(=O)N[C@]2(C)O[C@@]3(O)[C@@H]4CCC(O)N4C(=O)[C@H](Cc4ccccc4)N3C2=O)C[C@@H]2c3cccc4[nH]cc(c34)C[C@H]21 (some centres unmarked) [8′-OH DHE, 8′-Hydroxy-Dihydroergotamine] | 1.94 | 9.83e-05 | 0.77 | 0.43 | – | – | –
2 | CN1C[C@H](C(=O)N[C@]2(C)O[C@@]3(O)[C@@H]4CCCN4C(=O)[C@H](Cc4ccccc4)N3C2=O)C[C@@H]2c3cccc4[nH]cc(c34)C[C@H]21 [DHE, Dihydroergotamine] | 1.38 | – | – | – | 0.55 | 0.00014 | 0.27

Source: patent US20150306096A1, “8'-HYDROXY-DIHYDROERGOTAMINE COMPOUNDS AND COMPOSITIONS” (MAP Pharmaceuticals, Inc., priority 2012, published 2015)
